Assay results: patent US5061794A, “Cephalosporin derivatives, and antibacterial agents” (priority 1986, dated 1991)
In brackets after ≈: the same amount, converted by molar mass. Read-outs that look alike come from different tables or passages of the source.

Experiments:
Ps. cepacia 23 = test: in vitro antibacterial activity, agar plate dilution method (MIC); format: cell-based, Pseudomonas cepacia; details: read-out: Minimum Inhibitory Concentration (MIC)
Method in brief: (§1)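 Each organism, pre-grown overnight in Mueller Hinton broth, is inoculated at 10^6 CFU/ml onto Mueller Hinton agar series with increasing compound concentration; growth inhibition is scored after 16 h, 37° C., giving MIC (μg/ml).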

Ps. aeruginosa AK 109 = test: as above; format: cell-based, Pseudomonas aeruginosa; details: Pseudomonas aeruginosa, AK109, 16 h, 10^6 CFU/ml
Method in brief: as §1

Ps. aeruginosa AKR17 = test: as above; format: cell-based, Pseudomonas aeruginosa; details: Pseudomonas aeruginosa, read-out: Minimum Inhibitory Concentration (MIC)
Method in brief: as §1

Ps. aeruginosa IF03445 = test: as above; format: cell-based, Pseudomonas aeruginosa; details: Pseudomonas aeruginosa, 10^6 CFU/ml
Method in brief: as §1

E. coli CSH(RE45) = test: microbe, parasite or virus in culture; format: cell-based; details: Escherichia coli, 16 h, read-out: Minimum Inhibitory Concentration (MIC), *E. coli CSH(RE45), lactamase-producing strain; 10^6 CFU/ml
Method in brief: as §1

E. coli CSH2 (RK1) = test: microbe, parasite or virus in culture; format: cell-based; details: Escherichia coli, 16 h, read-out: Minimum Inhibitory Concentration (MIC), *E. coli CSH2 (RK1), lactamase-producing strain; 10^6 CFU/ml
Method in brief: as §1

A. calcoaceticus No. 4 = test: in vitro antibacterial activity, agar plate dilution method (MIC); format: cell-based, Acinetobacter calcoaceticus; details: Acinetobacter calcoaceticus, NO.4, 16 h, 10^6 CFU/ml
Method in brief: as §1

E. cloacae 963 = test: as above; format: cell-based; details: Enterobacter cloacae, 963, 16 h, read-out: Minimum Inhibitory Concentration (MIC), E. cloacae 963; 10^6 CFU/ml
Method in brief: as §1

K. pneumoniae PCI-602 = test: as above; format: cell-based; details: Klebsiella pneumoniae, PCI602, 16 h, 10^6 CFU/ml
Method in brief: as §1

P. vulgaris No. 33 = test: as above; format: cell-based; details: Proteus vulgaris, 10^6 CFU/ml
Method in brief: as §1

S. marcescens No. 16-2 = test: as above; format: cell-based; details: Serratia marcescens, NO.162, 16 h; *S. marcescens No. 16-2, lactamase-producing strain; 10^6 CFU/ml; read-out: Minimum Inhibitory Concentration (MIC)
Method in brief: as §1

K. oxytoca GN10650 = test: as above; format: cell-based; details: Klebsiella oxytoca, 10^6 CFU/ml
Method in brief: as §1

K. pneumoniae No. 42 = test: as above; format: cell-based; details: Klebsiella pneumoniae, NO.42, 16 h, read-out: Minimum Inhibitory Concentration (MIC), *K. pneumoniae No. 42, lactamase-producing strain; 10^6 CFU/ml
Method in brief: as §1

E. coli GN5482 = test: as above; format: cell-based; details: Escherichia coli
Method in brief: as §1

S. aureus 209P NIHJ-JC1 = test: as above; format: cell-based; details: Staphylococcus aureus, 16 h
Method in brief: as §1

E. cloacae Nek 39 = test: as above; format: cell-based; details: Enterobacter cloacae, NEK39, 16 h, 10^6 CFU/ml
Method in brief: as §1

S. marcescens IAM 1184 = test: as above; format: cell-based; details: Serratia marcescens, IAM1184, 16 h, read-out: Minimum Inhibitory Concentration (MIC)
Method in brief: as §1

E. coli NIHJ JC2 = test: as above; format: cell-based; details: Escherichia coli, NIHJJC2, 16 h, read-out: Minimum Inhibitory Concentration (MIC), E. coli NIHJ JC2, 10^6 CFU/ml, 37° C.
Method in brief: as §1

P. vulgaris HX-19 = test: as above; format: cell-based; details: Proteus vulgaris, HX19, 16 h, P. vulgaris HX-19; 10^6 CFU/ml; read-out: Minimum Inhibitory Concentration (MIC)
Method in brief: as §1

M. morganii GN5407 = test: as above; format: cell-based; details: Morganella morganii, GN5407, 16 h, read-out: Minimum Inhibitory Concentration (MIC), *M. morganii GN5407, lactamase-producing strain; 10^6 CFU/ml
Method in brief: as §1

[1] = Burkholderia cepacia, 16 h, Ps. cepacia 23, 10^6 CFU/ml
[2] = read-out: Minimum Inhibitory Concentration (MIC), Ps. aeruginosa AK 109
[3] = IF03445, 16 h, read-out: Minimum Inhibitory Concentration (MIC), Ps. aeruginosa IF03445
[4] = read-out: Minimum Inhibitory Concentration (MIC), A. calcoaceticus No. 4
[5] = K. pneumoniae PCI-602, read-out: Minimum Inhibitory Concentration (MIC)
[6] = NO.33, 16 h, read-out: Minimum Inhibitory Concentration (MIC), *P. vulgaris No. 33, lactamase-producing strain
[7] = GN10650, 16 h, read-out: Minimum Inhibitory Concentration (MIC), *K. oxytoca GN10650, lactamase-producing strain
[8] = GN5482, 16 h, read-out: Minimum Inhibitory Concentration (MIC), *E. coli GN5482, lactamase-producing strain, 10^6 CFU/ml
[9] = read-out: Minimum Inhibitory Concentration (MIC), *E. cloacae Nek 39, lactamase-producing strain
[10] = Ps. aeruginosa AK 109, read-out: Minimum Inhibitory Concentration (MIC)
[11] = 16 h, Ps. aeruginosa AKR17, 10^6 CFU/ml
[12] = 16 h, Ps. aeruginosa IF03445, read-out: Minimum Inhibitory Concentration (MIC)
[13] = A. calcoaceticus No. 4, read-out: Minimum Inhibitory Concentration (MIC)
[14] = read-out: Minimum Inhibitory Concentration (MIC), K. pneumoniae PCI-602
[15] = 16 h, *K. oxytoca GN10650, lactamase-producing strain, read-out: Minimum Inhibitory Concentration (MIC)
[16] = GN5482, 16 h, read-out: Minimum Inhibitory Concentration (MIC)
[17] = S. aureus 209P NIHJ-JC1, 10^6 CFU/ml, 37° C., 16 hours, read-out: Minimum Inhibitory Concentration (MIC)

Row | SMILES | MIC (Ps. cepacia 23; [1]) [mg/L] | MIC (E. coli CSH(RE45)) [mg/L] | MIC (E. coli CSH2 (RK1)) [mg/L] | MIC (E. cloacae 963) [mg/L] | MIC (P. vulgaris No. 33; [6]) [mg/L] | MIC (S. marcescens No. 16-2) [mg/L] | MIC (K. oxytoca GN10650; [7]) [mg/L] | MIC (K. pneumoniae No. 42) [mg/L] | MIC (E. cloacae Nek 39; [9]) [mg/L] | MIC (E. coli NIHJ JC2) [mg/L] | MIC (P. vulgaris HX-19) [mg/L] | MIC (M. morganii GN5407) [mg/L] | MIC (Ps. cepacia 23; Burkholderia cepacia, 23, 16 h) [mg/L] | MIC (Ps. aeruginosa AK 109; [10]) [mg/L] | MIC (Ps. aeruginosa AKR17; [11]) [mg/L] | MIC (Ps. aeruginosa IF03445; [12]) [mg/L] | MIC (A. calcoaceticus No. 4; [13]) [mg/L] | MIC (K. pneumoniae PCI-602; [14]) [mg/L] | MIC (S. marcescens IAM 1184) [mg/L] | MIC (S. aureus 209P NIHJ-JC1; [17]) [mg/L] | other results
1 | Nc1nc(/C(=N/OC(C(=O)O)c2ccc(O)c(O)c2)C(=O)N[C@@H]2C(=O)N3C(C(=O)O)=C(CSc4nnc(-c5ccc(O)c(O)c5)o4)CS[C@H]23)cs1 (stereo partly shown) [compound 16] | < 0.006 | 3.12 (≈ 4.12 µM) | 0.025 (≈ 0.033 µM) | 0.39 (≈ 0.515 µM) | 0.78 (≈ 1.03 µM) | 25 (≈ 33 µM) | 0.1 (≈ 0.132 µM) | 0.2 (≈ 0.264 µM) | 0.78 (≈ 1.03 µM) | 0.2 (≈ 0.264 µM) | 0.05 (≈ 0.066 µM) | 0.2 (≈ 0.264 µM) | – | – | – | – | – | – | – | – | MIC (Ps. aeruginosa AK 109; [2]): 0.78 mg/L (≈ 1.03 µM); MIC (Ps. aeruginosa AKR17; AKR17, 16 h): 3.12 mg/L (≈ 4.12 µM); MIC (Ps. aeruginosa IF03445; [3]): 6.25 mg/L (≈ 8.25 µM); MIC (A. calcoaceticus No. 4; [4]): 0.1 mg/L (≈ 0.132 µM); MIC (K. pneumoniae PCI-602; [5]): < 0.006 mg/L; MIC (E. coli GN5482; [8]): 0.78 mg/L (≈ 1.03 µM); MIC (S. aureus 209P NIHJ-JC1; read-out: Minimum Inhibitory Concentration (MIC), S. aureus 209P NIHJ-JC1, 10^6 CFU/ml, 37° C., 16 hours): 1.56 mg/L (≈ 2.06 µM); MIC (S. marcescens IAM 1184; S. marcescens IAM 1184, 10^6 CFU/ml): 0.1 mg/L (≈ 0.132 µM)
2 | CO/N=C(\C(=O)N[C@@H]1C(=O)N2C(C(=O)O)=C(CSc3nc(-c4ccc(O)cc4)c(CC(=O)O)s3)CS[C@H]12)c1csc(N)n1 [compound 17, disodium 7β-[2-(2-aminothiazol-4-yl)-2-methoxyminoacetamido]-3-[5-carboxylatemethyl-4-(4-hydroxyphenyl)thiazol-2-yl]thiomethyl-3-cephem-4-carboxylate, reference compound] | – | 0.78 | 0.39 | 0.39 | 0.1 | 100 | – | 0.78 | 12.5 | 0.39 | < 0.006 | 0.39 | 6.25 | 50 | > 100 | 50 | 100 | 0.1 | 0.39 | – | MIC (K. oxytoca GN10650; [15]): 25 mg/L; MIC (E. coli GN5482; [16]): 3.12 mg/L; MIC (S. aureus 209P NIHJ-JC1; read-out: Minimum Inhibitory Concentration (MIC)): 3.12 mg/L
3 | CO/N=C(\C(=O)N[C@@H]1C(=O)N2C(C(=O)O)=C(CSc3nc(-c4ccc(OC(C)=O)cc4)c(CC(=O)O)s3)CS[C@H]12)c1csc(N)n1 [compound 18, disodium 3-[4-(4-acetoxyphenyl)-5-carboxylatemethylthiazol-2-yl]thiomethyl-7δ-[2-(2-aminothiazol-4-yl)-2-methoxyiminoacetamido]-3-cephem-4-carboxylate, reference compound] | – | 1.56 | 0.78 | 0.78 | 0.1 | 100 | – | 0.78 | 12.5 | 0.78 | < 0.006 | 0.39 | 12.5 | > 100 | > 100 | 100 | 100 | – | 0.78 | 3.12 | MIC (K. pneumoniae PCI-602; [5]): 0.2 mg/L; MIC (K. oxytoca GN10650; [15]): 25 mg/L; MIC (E. coli GN5482; 16 h, *E. coli GN5482, lactamase-producing strain, 10^6 CFU/ml, read-out: Minimum Inhibitory Concentration (MIC)): 3.12 mg/L
4 | CC(C)(O/N=C(\C(=O)N[C@@H]1C(=O)N2C(C(=O)O)=C(CSc3nc(-c4ccc(O)cc4)c(CC(=O)O)s3)CS[C@H]12)c1csc(N)n1)C(=O)O [compound 19, reference compound] | 0.2 (≈ 0.272 µM) | 1.56 (≈ 2.12 µM) | 1.56 (≈ 2.12 µM) | 3.12 (≈ 4.25 µM) | 0.05 (≈ 0.068 µM) | 25 (≈ 34 µM) | 1.56 (≈ 2.12 µM) | 1.56 (≈ 2.12 µM) | 6.25 (≈ 8.51 µM) | 3.12 (≈ 4.25 µM) | < 0.006 | 1.56 (≈ 2.12 µM) | – | – | 25 (≈ 34 µM) | – | – | 0.39 (≈ 0.531 µM) | 0.78 (≈ 1.06 µM) | 50 (≈ 68 µM) | MIC (Ps. aeruginosa AK 109; [2]): 6.25 mg/L (≈ 8.51 µM); MIC (Ps. aeruginosa IF03445; [3]): 12.5 mg/L (≈ 17 µM); MIC (A. calcoaceticus No. 4; [4]): 6.25 mg/L (≈ 8.51 µM); MIC (E. coli GN5482; [16]): 3.12 mg/L (≈ 4.25 µM)
5 | CC(=O)Oc1ccc(-c2nc(SCC3=C(C(=O)O)N4C(=O)[C@@H](NC(=O)/C(=N\OC(C)(C)C(=O)O)c5csc(N)n5)[C@H]4SC3)sc2CC(=O)O)cc1 [compound 20, trisodium 3-[4-(4-acetoxyphenyl)-5-carboxylatemethylthiazol-2-yl]thiomethyl-7β-[2-(2-aminothiazol-4-yl)-2-(1-carboxylate-1-methylethoxyimino)acetamido]-3-cephem-4-carboxylate, reference compound] | – | 3.12 | 3.12 | 6.25 | – | 100 | 3.12 | 3.12 | – | 3.12 | < 0.006 | 3.12 | 6.25 | 25 | > 100 | 25 | > 100 | 1.56 | 1.56 | 50 | MIC (P. vulgaris No. 33; 16 h, *P. vulgaris No. 33, lactamase-producing strain, read-out: Minimum Inhibitory Concentration (MIC)): 0.1 mg/L; MIC (E. coli GN5482; [8]): 6.25 mg/L; MIC (E. cloacae Nek 39; *E. cloacae Nek 39, lactamase-producing strain, read-out: Minimum Inhibitory Concentration (MIC)): 25 mg/L
